Measurements from PubChem BioAssay AID330 (DTP/NCI, 2004).
Where “and” joins values, the source holds several entries; their conditions need not be identical. Identical values can stand only once. Toxic doses and inconclusive results are not listed. The calls were made as follows: active = survival T/C of 150% or more; inactive = T/C below 125% in these data.

System: P388 leukemia ip, CD2F1 mice, survival T/C
Experiment: NCI In Vivo Anticancer Drug Screen. Data for tumor model P388 Leukemia (intraperitoneal) in CD2F1 (CDF1) mice
Conditions: endpoint: median survival time, higher = longer survival
Outline: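 Mice carrying the transplanted tumor received test compound or vehicle. Survival was recorded in each group, and the value is the treated-group measurement divided by that of the vehicle-treated control group.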

[1] = dose: 50.0 mg/kg/injection, schedule: Q01DX005 (ip), vehicle: Klucel (hydroxypropylcellulose) (HPC)
[2] = dose: 100.0 mg/kg/injection, schedule: Q01DX005 (ip), vehicle: Klucel (hydroxypropylcellulose) (HPC)
[3] = dose: 200.0 mg/kg/injection, schedule: Q01DX005 (ip), vehicle: Klucel (hydroxypropylcellulose) (HPC)
[4] = dose: 60.0 mg/kg/injection, schedule: Q01DX005 (ip), vehicle: saline with Tween-80
[5] = dose: 120.0 mg/kg/injection, schedule: Q01DX005 (ip), vehicle: saline with Tween-80
[6] = dose: 240.0 mg/kg/injection, schedule: Q01DX005 (ip), vehicle: saline with Tween-80
[7] = dose: 50.0 mg/kg/injection, schedule: Q01DX009 (ip), vehicle: saline
[8] = dose: 200.0 mg/kg/injection, schedule: Q01DX009 (ip), vehicle: saline
[9] = dose: 50.0 mg/kg/injection, schedule: Q01DX009 (ip), vehicle: saline with Tween-80
[10] = dose: 100.0 mg/kg/injection, schedule: Q01DX009 (ip), vehicle: saline with Tween-80
[11] = dose: 200.0 mg/kg/injection, schedule: Q01DX009 (ip), vehicle: saline with Tween-80
[12] = dose: 50.0 mg/kg/injection, schedule: Q01DX005 (ip), vehicle: saline with Tween-80
[13] = dose: 100.0 mg/kg/injection, schedule: Q01DX005 (ip), vehicle: saline with Tween-80
[14] = dose: 40.0 mg/kg/injection, schedule: Q01DX009 (ip), vehicle: saline

Measured: T/C

CCOC(=O)C1(O)C(=O)ON=C1c1ccccc1 (stereo unspecified)
inactive: [1] 100 % of control | [2] 104 % of control | [3] 107 % of control

c1csc(-c2[nH]nc3c2CCc2ccccc2-3)c1
inactive: dose: 3.75 mg/kg/injection, schedule: Q01DX005 (ip), vehicle: Klucel (hydroxypropylcellulose) (HPC) 122 % of control | dose: 7.5 mg/kg/injection, schedule: Q01DX005 (ip), vehicle: Klucel (hydroxypropylcellulose) (HPC) 114 % of control | dose: 15.0 mg/kg/injection, schedule: Q01DX005 (ip), vehicle: Klucel (hydroxypropylcellulose) (HPC) 114 % of control

CCC(C)OC(=Nc1cccc2ccccc12)Nc1cccc2ccccc12 (stereo unspecified)
inactive: [4] 92 % of control | [5] 93 % of control | [6] 93 % of control

CCC(c1ccc(OCCS(=O)(=O)OC)cc1)C(CC)c1ccc(OCCS(=O)(=O)OC)cc1 (stereo unspecified)
inactive: dose: 12.5 mg/kg/injection, schedule: Q01DX009 (ip), vehicle: suspension in saline 100 % of control | dose: 25.0 mg/kg/injection, schedule: Q01DX009 (ip), vehicle: suspension in saline 94 % of control | [7] 91 % of control | dose: 50.0 mg/kg/injection, schedule: Q01DX009 (ip), vehicle: suspension in saline 87 % of control | [8] 92 % of control

Nc1nc(N)c2nc(C(=O)c3ccccc3)c(-c3ccccc3)nc2n1
inactive: [9] 92 % of control | [10] 97 % of control | [11] 90 % of control

Cc1cc(C2=CSC3=NCCN23)ccc1Cl
inactive: [12] 107 % of control | [13] 105 % of control

COC(=O)/C=C1/Nc2cnc(Nc3ccccc3)nc2N(c2ccccc2)C1=O
inactive: [14] 87 % of control | dose: 80.0 mg/kg/injection, schedule: Q01DX009 (ip), vehicle: saline 89 % of control | dose: 160.0 mg/kg/injection, schedule: Q01DX009 (ip), vehicle: saline 87 % of control

O=C(C=C(C(F)(F)F)C(F)(F)F)c1ccc(Cl)c2ccccc12
inactive: dose: 12.5 mg/kg/injection, schedule: Q04DX003 (ip), vehicle: saline with Tween-80 113 % of control | dose: 25.0 mg/kg/injection, schedule: Q04DX003 (ip), vehicle: saline with Tween-80 118 % of control

Nc1ccc2[nH]c(=O)cc(C(=O)O)c2c1
inactive: [12] 92 % of control | [13] 93 % of control | dose: 200.0 mg/kg/injection, schedule: Q01DX005 (ip), vehicle: saline with Tween-80 92 % of control

CC(N)S(=O)(=O)O (stereo unspecified)
inactive: [7] 104 % of control | dose: 100.0 mg/kg/injection, schedule: Q01DX009 (ip), vehicle: saline 98 % of control | [8] 104 % of control | dose: 400.0 mg/kg/injection, schedule: Q01DX009 (ip), vehicle: saline 88 % of control

C=CCOc1ccccc1/C=N/[N+](C)(C)C
inactive: dose: 12.5 mg/kg/injection, schedule: Q01DX009 (ip), vehicle: saline 100 % of control | dose: 25.0 mg/kg/injection, schedule: Q01DX009 (ip), vehicle: saline 110 % of control

CCOC(=O)C1C(=O)NN(/C=C2\C=CC=CC2=O)C1c1ccc([N+](=O)[O-])cc1 (stereo unspecified)
inactive: dose: 100.0 mg/kg/injection, schedule: Q04DX002 (ip), vehicle: saline 111 % of control | dose: 200.0 mg/kg/injection, schedule: Q04DX002 (ip), vehicle: saline 93 % of control | dose: 400.0 mg/kg/injection, schedule: Q04DX002 (ip), vehicle: saline 98 % of control

O=C(NC(Cc1ccccc1)C(=O)O)OCCc1ccccn1 (stereo unspecified)
inactive: dose: 60.0 mg/kg/injection, schedule: Q01DX005 (ip), vehicle: Klucel (hydroxypropylcellulose) (HPC) 104 % of control | dose: 120.0 mg/kg/injection, schedule: Q01DX005 (ip), vehicle: Klucel (hydroxypropylcellulose) (HPC) 92 % of control | dose: 240.0 mg/kg/injection, schedule: Q01DX005 (ip), vehicle: Klucel (hydroxypropylcellulose) (HPC) 102 % of control

N#C/C(=C\c1ccncc1)c1ccccc1
inactive: dose: 3.13 mg/kg/injection, schedule: Q01DX009 (ip), vehicle: saline with Tween-80 90 % of control | dose: 6.25 mg/kg/injection, schedule: Q01DX009 (ip), vehicle: saline with Tween-80 95 % of control | dose: 12.5 mg/kg/injection, schedule: Q01DX009 (ip), vehicle: saline with Tween-80 92 % of control | dose: 25.0 mg/kg/injection, schedule: Q01DX009 (ip), vehicle: saline with Tween-80 109 % of control

CCCCc1c(OC(=O)N(C)C)c(C#N)c2n(C)c3ccccc3n2c1=O
inactive: [4] 101 % of control and 86 % of control | [5] 95 % of control | [6] 93 % of control and 96 % of control

CS(=O)CSCC(N)C(=O)O (stereo unspecified)
inactive: dose: 25.0 mg/kg/injection, schedule: Q01DX009 (ip), vehicle: water 91 % of control | dose: 50.0 mg/kg/injection, schedule: Q01DX009 (ip), vehicle: water 100 % of control | dose: 100.0 mg/kg/injection, schedule: Q01DX009 (ip), vehicle: water 93 % of control | dose: 200.0 mg/kg/injection, schedule: Q01DX009 (ip), vehicle: water 99 % of control | dose: 400.0 mg/kg/injection, schedule: Q01DX009 (ip), vehicle: water 96 % of control

N#CC(Br)CNC(=O)Oc1ccccc1 (stereo unspecified)
inactive: [1] 104 % of control | [2] 106 % of control | [3] 105 % of control

NC(=O)NCCSc1ccc(SCCNC(N)=O)nn1
inactive: dose: 50.0 mg/kg/injection, schedule: Q01DX009 (ip), vehicle: Klucel (hydroxypropylcellulose) (HPC) 109 % of control | dose: 100.0 mg/kg/injection, schedule: Q01DX009 (ip), vehicle: Klucel (hydroxypropylcellulose) (HPC) 100 % of control | dose: 200.0 mg/kg/injection, schedule: Q01DX009 (ip), vehicle: Klucel (hydroxypropylcellulose) (HPC) 98 % of control | dose: 400.0 mg/kg/injection, schedule: Q01DX009 (ip), vehicle: Klucel (hydroxypropylcellulose) (HPC) 90 % of control

O=C1C=C(Nc2ccccc2)CCC1
inactive: dose: 100.0 mg/kg/injection, schedule: Q04DX003 (ip), vehicle: saline with Tween-80 100 % of control | dose: 200.0 mg/kg/injection, schedule: Q04DX003 (ip), vehicle: saline with Tween-80 105 % of control | dose: 400.0 mg/kg/injection, schedule: Q04DX003 (ip), vehicle: saline with Tween-80 105 % of control

COc1ccc(C(c2c(O)c3ccccc3oc2=O)N2CCOCC2)cc1 (stereo unspecified)
inactive: dose: 15.0 mg/kg/injection, schedule: Q01DX005 (ip), vehicle: saline with Tween-80 99 % of control | dose: 30.0 mg/kg/injection, schedule: Q01DX005 (ip), vehicle: saline with Tween-80 97 % of control | [4] 100 % of control and 94 % of control

C/C=C/C=C/C(=O)c1ccc(OC)cc1O
inactive: [9] 103 % of control and 105 % of control | [10] 101 % of control and 103 % of control | [11] 101 % of control and 106 % of control | dose: 400.0 mg/kg/injection, schedule: Q01DX009 (ip), vehicle: saline with Tween-80 106 % of control and 108 % of control

NC(=O)/C(N=Nc1ccccc1S(=O)(=O)O)=N/Nc1ccccc1S(=O)(=O)O
inactive: [1] 100 % of control | [2] 101 % of control and 92 % of control | [3] 101 % of control and 94 % of control

CC1CCC2(OC1)OC1C(O)C3C4CCC5CC(OC6OC(CO)C(OC7OC(CO)C(O)C(OC8OCC(O)C(O)C8O)C7OC7OC(CO)C(O)C(OC8OC(CO)C(O)C(O)C8O)C7O)C(O)C6O)C(O)CC5(C)C4CCC3(C)C1C2C (stereo unspecified)
inactive: dose: 0.62 mg/kg/injection, schedule: Q01DX009 (ip), vehicle: saline 101 % of control | dose: 1.25 mg/kg/injection, schedule: Q01DX009 (ip), vehicle: saline 98 % of control | dose: 2.5 mg/kg/injection, schedule: Q01DX009 (ip), vehicle: saline 93 % of control | dose: 5.0 mg/kg/injection, schedule: Q01DX009 (ip), vehicle: saline 87 % of control | [14] 86 % of control
